Values of other authors as cited in US20040248775A1, “Methods for screening inhibitors of apoptosis” (Wyeth, priority 2003, published 2004).

Target: T1, Apaf-1 (Homo sapiens, UniProt O14727)
T1 sequence (O14727 1-1248): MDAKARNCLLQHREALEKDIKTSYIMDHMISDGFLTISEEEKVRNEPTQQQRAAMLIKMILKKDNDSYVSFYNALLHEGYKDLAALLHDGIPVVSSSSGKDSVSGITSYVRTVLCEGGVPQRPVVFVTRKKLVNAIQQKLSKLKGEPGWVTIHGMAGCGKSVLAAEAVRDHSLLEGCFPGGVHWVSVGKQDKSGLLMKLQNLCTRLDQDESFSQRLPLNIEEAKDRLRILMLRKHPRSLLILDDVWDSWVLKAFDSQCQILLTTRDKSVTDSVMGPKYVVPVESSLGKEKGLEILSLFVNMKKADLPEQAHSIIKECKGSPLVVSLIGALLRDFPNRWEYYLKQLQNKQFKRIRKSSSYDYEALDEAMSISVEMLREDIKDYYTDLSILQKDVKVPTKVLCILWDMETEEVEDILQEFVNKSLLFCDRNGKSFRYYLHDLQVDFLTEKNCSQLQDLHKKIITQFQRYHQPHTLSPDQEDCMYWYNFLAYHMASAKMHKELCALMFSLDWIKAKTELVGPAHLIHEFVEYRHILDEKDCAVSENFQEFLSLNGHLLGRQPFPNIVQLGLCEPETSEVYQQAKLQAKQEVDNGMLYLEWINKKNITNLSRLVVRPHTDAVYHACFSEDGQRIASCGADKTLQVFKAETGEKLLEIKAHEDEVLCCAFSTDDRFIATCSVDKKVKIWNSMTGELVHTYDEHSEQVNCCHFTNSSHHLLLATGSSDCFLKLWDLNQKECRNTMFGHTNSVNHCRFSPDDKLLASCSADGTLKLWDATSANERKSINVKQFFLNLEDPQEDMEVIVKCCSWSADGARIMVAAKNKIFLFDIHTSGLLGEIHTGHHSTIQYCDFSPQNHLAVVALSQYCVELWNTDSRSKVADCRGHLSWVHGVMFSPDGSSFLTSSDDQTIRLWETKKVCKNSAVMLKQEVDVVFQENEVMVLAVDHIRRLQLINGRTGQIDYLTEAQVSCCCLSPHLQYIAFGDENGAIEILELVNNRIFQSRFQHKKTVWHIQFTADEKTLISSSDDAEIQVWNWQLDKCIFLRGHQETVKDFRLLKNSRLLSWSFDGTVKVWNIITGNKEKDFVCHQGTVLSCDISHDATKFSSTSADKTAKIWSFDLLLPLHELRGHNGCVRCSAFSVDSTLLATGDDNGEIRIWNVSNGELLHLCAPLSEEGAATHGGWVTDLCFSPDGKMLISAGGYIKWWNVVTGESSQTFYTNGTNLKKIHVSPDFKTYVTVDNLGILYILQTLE
Details: Jiang et al., 2000; cited from earlier work

## Nc1ncnc2c1ncn2[C@H]1C[C@H](O)[C@@H](COP(=O)(O)OP(=O)(O)OP(=O)(O)O)O1 [dATP]
  affinity of purine nucleotides for Apaf-1: greatest affinity
